Measurements reported in the supplement of paper PMC10307832.

Columns and labels:
Test in all cases: relative viability (nuclei count vs DMSO), 5 days (fraction); higher = more cells survive
COR-L 105 = test system: COR-L 105
Method in brief: (§1)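 Each reported value is a median over duplicate plates. It expresses relative viability: treated-well nuclei count divided by vehicle-well nuclei count. Lung cancer cell lines in 1536-well plates were dosed by pin tool a day after seeding, alone with one drug or with a fixed anchor-drug dose plus five library-drug doses (not always all listed) in √10 steps, and nuclei were counted after 5 days.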

COR-L23 = test system: COR-L23
Method in brief: as §1

EKVX = test system: EKVX
Method in brief: as §1

HARA = test system: HARA
Method in brief: as §1

HOP-62 = test system: HOP-62
Method in brief: as §1

NCI-H1355 = test system: NCI-H1355
Method in brief: as §1

NCI-H1395 = test system: NCI-H1395
Method in brief: as §1

NCI-H1734 = test system: NCI-H1734
Method in brief: as §1

NCI-H1755 = test system: NCI-H1755
Method in brief: as §1

NCI-H1793 = test system: NCI-H1793
Method in brief: as §1

NCI-H1993 = test system: NCI-H1993
Method in brief: as §1

NCI-H2009 = test system: NCI-H2009
Method in brief: as §1

NCI-H2170 = test system: NCI-H2170
Method in brief: as §1

NCI-H2228 = test system: NCI-H2228
Method in brief: as §1

NCI-H2342 = test system: NCI-H2342
Method in brief: as §1

NCI-H2347 = test system: NCI-H2347
Method in brief: as §1

NCI-H322M = test system: NCI-H322M
Method in brief: as §1

NCI-H358 = test system: NCI-H358
Method in brief: as §1

NCI-H522 = test system: NCI-H522
Method in brief: as §1

NCI-H647 = test system: NCI-H647
Method in brief: as §1

NCI-H838 = test system: NCI-H838
Method in brief: as §1

PC-14 = test system: PC-14
Method in brief: as §1

SK-MES-1 = test system: SK-MES-1
Method in brief: as §1

UMC-11 = test system: UMC-11
Method in brief: as §1

## CC(C)Oc1cc(Nc2nc(N[C@@H](C)c3ccc(F)cn3)ncc2Cl)n[nH]1 [AZ23] + N=C(N)NC(=N)NCCc1ccccc1 [Phenformin] (partner 250 µM)
COR-L 105; first compound 0.01 µM
  relative viability: 0.456
COR-L 105; first compound 0.03162 µM
  relative viability: 0.577
COR-L 105; first compound 0.3162 µM
  relative viability: 0.508
COR-L23; first compound 0.01 µM
  relative viability: 0.367
COR-L23; first compound 0.03162 µM
  relative viability: 0.512
COR-L23; first compound 0.3162 µM
  relative viability: 0.462
EKVX; first compound 0.01 µM
  relative viability: 0.224
EKVX; first compound 0.03162 µM
  relative viability: 0.237
EKVX; first compound 0.3162 µM
  relative viability: 0.231
HARA; first compound 0.03162 µM
  relative viability: 0.589
HARA; first compound 0.3162 µM
  relative viability: 0.471
HOP-62; first compound 0.01 µM
  relative viability: 0.684
HOP-62; first compound 0.03162 µM
  relative viability: 0.792
HOP-62; first compound 0.3162 µM
  relative viability: 0.79
NCI-H1355; first compound 0.01 µM
  relative viability: 0.462
NCI-H1355; first compound 0.03162 µM
  relative viability: 0.483
NCI-H1355; first compound 0.3162 µM
  relative viability: 0.455
NCI-H1395; first compound 0.03162 µM
  relative viability: 0.483
NCI-H1395; first compound 0.3162 µM
  relative viability: 0.451
NCI-H1734; first compound 0.01 µM
  relative viability: 0.335
NCI-H1734; first compound 0.03162 µM
  relative viability: 0.451
NCI-H1734; first compound 0.3162 µM
  relative viability: 0.439
NCI-H1755; first compound 0.01 µM
  relative viability: 0.689
NCI-H1755; first compound 0.03162 µM
  relative viability: 0.651
NCI-H1755; first compound 0.3162 µM
  relative viability: 0.673
NCI-H1793; first compound 0.01 µM
  relative viability: 0.366
NCI-H1793; first compound 0.03162 µM
  relative viability: 0.439
NCI-H1793; first compound 0.3162 µM
  relative viability: 0.45
NCI-H1993; first compound 0.01 µM
  relative viability: 0.501
NCI-H1993; first compound 0.03162 µM
  relative viability: 0.475
NCI-H1993; first compound 0.3162 µM
  relative viability: 0.441
NCI-H2009; first compound 0.01 µM
  relative viability: 0.508
NCI-H2009; first compound 0.03162 µM
  relative viability: 0.539
NCI-H2009; first compound 0.3162 µM
  relative viability: 0.63
NCI-H2170; first compound 0.01 µM
  relative viability: 0.463
NCI-H2170; first compound 0.03162 µM
  relative viability: 0.424
NCI-H2170; first compound 0.3162 µM
  relative viability: 0.489
NCI-H2228; first compound 0.01 µM
  relative viability: 0.401
NCI-H2228; first compound 0.03162 µM
  relative viability: 0.302
NCI-H2228; first compound 0.3162 µM
  relative viability: 0.252
NCI-H2342; first compound 0.01 µM
  relative viability: 0.683
NCI-H2342; first compound 0.03162 µM
  relative viability: 0.634
NCI-H2342; first compound 0.3162 µM
  relative viability: 0.564
NCI-H2347; first compound 0.01 µM
  relative viability: 0.341
NCI-H2347; first compound 0.03162 µM
  relative viability: 0.333
NCI-H2347; first compound 0.3162 µM
  relative viability: 0.455
NCI-H322M; first compound 0.03162 µM
  relative viability: 0.903
NCI-H322M; first compound 0.3162 µM
  relative viability: 0.785
NCI-H358; first compound 0.01 µM
  relative viability: 0.369
NCI-H358; first compound 0.03162 µM
  relative viability: 0.347
NCI-H358; first compound 0.3162 µM
  relative viability: 0.348
NCI-H522; first compound 0.01 µM
  relative viability: 0.711
NCI-H522; first compound 0.03162 µM
  relative viability: 0.662
NCI-H522; first compound 0.3162 µM
  relative viability: 0.656
NCI-H647; first compound 0.01 µM
  relative viability: 0.558
NCI-H647; first compound 0.03162 µM
  relative viability: 0.797
NCI-H647; first compound 0.3162 µM
  relative viability: 0.604
NCI-H838; first compound 0.01 µM
  relative viability: 0.546
NCI-H838; first compound 0.03162 µM
  relative viability: 0.586
NCI-H838; first compound 0.3162 µM
  relative viability: 0.597
PC-14; first compound 0.03162 µM
  relative viability: 0.781
PC-14; first compound 0.3162 µM
  relative viability: 0.703
SK-MES-1; first compound 0.03162 µM
  relative viability: 0.743
SK-MES-1; first compound 0.3162 µM
  relative viability: 0.743
UMC-11; first compound 0.01 µM
  relative viability: 0.341
UMC-11; first compound 0.03162 µM
  relative viability: 0.305
UMC-11; first compound 0.3162 µM
  relative viability: 0.324
